Experiments:
[1] = biological target: T1, hFASN enzyme (full length) (Homo sapiens, UniProt P49327); test: Fatty Acid Synthase (FASN) inhibition scintillation proximity assay; type: biochemical; settings: for inhibition at 10 µM: read-out: Human FASN % inhibition @ 10 μM, 10 μM test compound; for IC50: read-out: Human FASN pIC50 (converted)
T1 construct: 10 μL hFASN enzyme (full length, 300 ng, purified in house); made in house
Method in brief: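 Read-out relies on hydrophobic ³H-palmitate product, formed from ³H-acetyl-CoA and malonyl-CoA, binding streptavidin imaging beads, measured at 610±20 nm after at least 24 h. Full-length enzyme (300 ng) in phosphate buffer pH 7.5 with DTT; eight compound concentrations, 0.01–30 μM.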

A2780 ovarian cells [2] = test: A2780 ovarian cell proliferation assay in lipid reduced medium, with palmitate (MTT); type: cell-based; settings: Homo sapiens, A2780, 96 h; read-out: pIC50 A2780 Ovarian Cell, With Palmitate (converted)
Method in brief: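 In this palmitate-supplemented format, compound dilutions (30 μM down to 0.01 μM) are added to cells in lipid-reduced serum with 25 μM palmitate, 0.2% fatty-acid-free BSA and 0.25% ethanol. After four days (96 h) MTT absorbance at 544 nm is recorded and fitted by minimum sum of squares.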

A2780 ovarian cells [3] = test: A2780 ovarian cell proliferation assay in lipid reduced medium, without palmitate (MTT); type: cell-based; settings: Homo sapiens, A2780, 96 h; read-out: pIC50 A2780 Ovarian Cell, Without Palmitate (converted)
[4] = test system: LNCaP-Vancouver prostate cells; test: In vitro LNCaP Vancouver prostate cell proliferation assay in lipid reduced medium; type: cell-based; settings: read-out: pIC50 LNCaP_Vancouver prostate cell (converted)
[5] = test system: PC-3M-Luc-C6 prostate cells; test: In vitro PC-3M-Luc-C6 prostate cell proliferation assay in lipid reduced medium; type: cell-based; settings: 96 h, read-out: pIC50 PC-3M-Luc-C6 prostate cell (converted)
[6] = biological target: Fatty Acid Synthase Keto-reductase Domain (FASN KR) (Homo sapiens, UniProt P49327); test: Fatty Acid Synthase keto-reductase domain (FASN KR) inhibition, NADPH oxidation at 340 nm
Sequence of Fatty Acid Synthase Keto-reductase Domain (FASN KR) (P49327 whole entry, the tested form may be a part): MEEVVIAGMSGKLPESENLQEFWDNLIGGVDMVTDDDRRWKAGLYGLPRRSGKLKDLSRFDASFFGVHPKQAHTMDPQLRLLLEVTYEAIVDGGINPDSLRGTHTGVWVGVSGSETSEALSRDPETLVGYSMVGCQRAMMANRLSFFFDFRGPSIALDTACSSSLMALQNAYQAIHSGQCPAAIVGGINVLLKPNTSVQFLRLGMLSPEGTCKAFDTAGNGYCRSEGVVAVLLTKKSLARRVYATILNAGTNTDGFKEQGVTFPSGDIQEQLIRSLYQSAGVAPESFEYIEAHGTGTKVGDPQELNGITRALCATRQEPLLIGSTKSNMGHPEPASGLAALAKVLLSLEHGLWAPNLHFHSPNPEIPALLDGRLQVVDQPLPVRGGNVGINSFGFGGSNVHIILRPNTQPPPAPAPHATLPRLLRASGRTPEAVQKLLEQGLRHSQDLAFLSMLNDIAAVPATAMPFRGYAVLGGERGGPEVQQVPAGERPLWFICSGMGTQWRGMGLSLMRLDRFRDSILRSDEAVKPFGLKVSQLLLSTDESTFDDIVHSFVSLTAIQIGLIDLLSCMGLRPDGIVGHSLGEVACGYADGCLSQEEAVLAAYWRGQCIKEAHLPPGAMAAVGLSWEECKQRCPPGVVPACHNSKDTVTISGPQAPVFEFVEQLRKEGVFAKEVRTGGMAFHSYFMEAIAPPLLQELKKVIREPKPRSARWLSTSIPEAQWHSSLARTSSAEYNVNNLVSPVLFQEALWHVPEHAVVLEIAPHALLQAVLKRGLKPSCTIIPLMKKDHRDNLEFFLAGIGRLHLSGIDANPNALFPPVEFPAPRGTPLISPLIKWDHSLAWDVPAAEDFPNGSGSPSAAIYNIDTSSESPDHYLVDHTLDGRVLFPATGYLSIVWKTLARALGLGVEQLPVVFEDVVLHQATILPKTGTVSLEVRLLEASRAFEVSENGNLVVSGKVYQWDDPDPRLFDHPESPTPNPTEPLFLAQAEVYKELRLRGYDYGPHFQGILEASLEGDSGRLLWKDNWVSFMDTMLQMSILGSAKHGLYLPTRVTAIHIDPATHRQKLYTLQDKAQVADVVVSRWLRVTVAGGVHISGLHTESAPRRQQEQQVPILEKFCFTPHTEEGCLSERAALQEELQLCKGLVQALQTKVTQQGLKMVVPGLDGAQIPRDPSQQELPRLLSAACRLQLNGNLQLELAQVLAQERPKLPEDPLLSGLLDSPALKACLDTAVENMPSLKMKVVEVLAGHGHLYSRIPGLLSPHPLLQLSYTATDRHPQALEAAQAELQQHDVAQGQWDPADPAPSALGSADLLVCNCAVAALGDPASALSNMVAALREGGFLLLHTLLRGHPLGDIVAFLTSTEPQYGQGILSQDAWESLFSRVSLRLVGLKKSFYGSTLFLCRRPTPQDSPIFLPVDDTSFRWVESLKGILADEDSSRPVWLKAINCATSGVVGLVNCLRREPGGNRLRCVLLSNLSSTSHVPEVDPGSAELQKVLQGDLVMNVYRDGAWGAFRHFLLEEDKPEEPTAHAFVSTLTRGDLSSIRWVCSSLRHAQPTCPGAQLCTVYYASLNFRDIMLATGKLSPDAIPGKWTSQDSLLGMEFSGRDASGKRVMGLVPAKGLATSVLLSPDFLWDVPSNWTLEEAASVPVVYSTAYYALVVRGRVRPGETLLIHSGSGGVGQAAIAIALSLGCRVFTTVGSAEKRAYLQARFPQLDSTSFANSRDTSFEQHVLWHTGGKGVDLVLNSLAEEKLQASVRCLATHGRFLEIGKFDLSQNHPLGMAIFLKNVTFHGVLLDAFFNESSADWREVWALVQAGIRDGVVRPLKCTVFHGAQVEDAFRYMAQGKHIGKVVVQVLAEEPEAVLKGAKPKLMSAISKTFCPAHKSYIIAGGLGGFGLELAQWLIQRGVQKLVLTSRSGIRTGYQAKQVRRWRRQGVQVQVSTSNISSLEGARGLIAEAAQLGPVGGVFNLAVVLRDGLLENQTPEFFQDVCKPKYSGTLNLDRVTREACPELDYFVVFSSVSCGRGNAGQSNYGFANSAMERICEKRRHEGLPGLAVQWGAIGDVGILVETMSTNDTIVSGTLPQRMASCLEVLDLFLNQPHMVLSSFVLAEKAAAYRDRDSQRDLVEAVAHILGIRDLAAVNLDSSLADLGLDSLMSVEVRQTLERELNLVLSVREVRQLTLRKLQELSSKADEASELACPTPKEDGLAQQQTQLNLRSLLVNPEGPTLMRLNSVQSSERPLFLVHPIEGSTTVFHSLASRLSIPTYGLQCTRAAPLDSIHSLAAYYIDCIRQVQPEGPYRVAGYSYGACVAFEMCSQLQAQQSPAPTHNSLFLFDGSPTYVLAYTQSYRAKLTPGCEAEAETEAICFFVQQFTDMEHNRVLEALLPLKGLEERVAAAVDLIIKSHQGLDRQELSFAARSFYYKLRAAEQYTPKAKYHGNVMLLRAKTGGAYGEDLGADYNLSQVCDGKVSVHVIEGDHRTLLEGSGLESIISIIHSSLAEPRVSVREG
Experimental: After 20 minutes incubation at room temperature the plate was measured again (T2).
The decrease in absorbance was calculated as (Absorbance before incubation T1)−(Absorbance following incubation T2).
A plot of Controlmin versus test compound concentration was fitted to a 4-parameter logistic curve using a non-linear least squares regression method.

T1 sequence (P49327 whole entry): as the sequence (P49327 whole entry, the tested form may be a part) above

Structure (SMILES) | inhibition at 10 µM [1] [%] | IC50 [1] [nM] | IC50 (A2780 ovarian cells [2]) [nM] | IC50 (A2780 ovarian cells [3]) [nM] | IC50 [4] [nM] | IC50 [5] [nM] | IC50 [6] [nM]
O=C(C1CC1)N1CC[C@@H](CN2C(=O)C3(CC3)N=C2c2ccc(-c3nc4ccccc4s3)cc2)C1 [compound 308, (R)-5-(4-(benzo[d]thiazol-2-yl)phenyl)-6-((1-(cyclopropanecarbonyl)pyrrolidin-3-yl)methyl)-4,6-diazaspiro[2.4]hept-4-en-7-one] | 102 | 47.9 | > 10000 | 145 | 479 | 100 | 129
O=C(C1CC1)N1CC(CN2C(=O)C3(CC3)N=C2c2ccc(-c3nc4ccc(Cl)cc4s3)cc2F)C1 [compound 274, 5-(4-(6-chlorobenzo[d]thiazol-2-yl)-2-fluorophenyl)-6-((1-(cyclopropanecarbonyl)azetidin-3-yl)methyl)-4,6-diazaspiro[2.4]hept-4-en-7-one] | 101 | 50.1 | 7240 | ~24 | 339 | 46.8 | 100
Cc1cc(-c2ccc(-c3ccnn3C)cc2)ccc1C1=NC2(CC2)C(=O)N1C[C@@H]1CCN(C(=O)C2(C)CC2)C1 [compound 623, 6-({(3R)-1-[(1-Methylcyclopropyl)carbonyl]pyrrolidin-3-yl}methyl)-5-[3-methyl-4′-(1-methyl-1H-pyrazol-5-yl)biphenyl-4-yl]-4,6-diazaspiro[2.4]hept-4-en-7-one] | 101 | 145 | 5130 | ~32.4 | 562 | 123 | 234
CCn1ncc2cc(-c3ccc(C4=NC5(CC5)C(=O)N4CC4CN(C(=O)C5CC5)C4)c(F)c3)ccc21 [compound 521, 6-{[1-(Cyclopropylcarbonyl)azetidin-3-yl]methyl}-5-[4-(1-ethyl-1H-indazol-5-yl)-2-fluorophenyl]-4,6-diazaspiro[2.4]hept-4-en-7-one] | 94 | 513 | > 10000 | ~339 | 1910 | 603 | 676
O=C(C1CC1)N1CC[C@@H](CN2C(=O)C3(CC3)N=C2c2ccc(-c3ccc4c(Cl)nccc4c3)cc2)C1 [compound 479, 5-[4-(1-Chloroisoquinolin-6-yl)phenyl]-6-{[(3R)-1-(cyclopropylcarbonyl)pyrrolidin-3-yl]methyl}-4,6-diazaspiro[2.4]hept-4-en-7-one] | 95 | 162 | > 10000 | 692 | 933 | 302 | 447
Cc1cc(-c2ccc(-c3ccn(CC(C)C)n3)cc2)ccc1C1=NC2(CC2)C(=O)N1CC1CN(C(=O)C2(C)CC2)C1 [compound 602, 6-({1-[(1-Methylcyclopropyl)carbonyl]azetidin-3-yl}methyl)-5-{3-methyl-4′-[1-(2-methylpropyl)-1H-pyrazol-3-yl]biphenyl-4-yl}-4,6-diazaspiro[2.4]hept-4-en-7-one] | 94 | 324 | 6170 | 380 | 1480 | 692 | 1550
COc1ccc2ccc(-c3ccc(C4=NC5(CC5)C(=O)N4CC4CN(C(=O)C5(O)CC5)C4)c(F)c3)cc2c1 [compound 617, 5-[2-Fluoro-4-(7-methoxynaphthalen-2-yl)phenyl]-6-({1-[(1-hydroxycyclopropyl)carbonyl]azetidin-3-yl}methyl)-4,6-diazaspiro[2.4]hept-4-en-7-one] | 100 | 166 | > 10000 | 245 | 2570 | 646 | 631
O=C(C1CC1)N1CC(CN2C(=O)C3(CCOCC3)N=C2c2ccc(-c3ccc4cccnc4c3)cc2)C1 [compound 698, 3-{[1-(Cyclopropylcarbonyl)azetidin-3-yl]methyl}-2-(4-quinolin-7-ylphenyl)-8-oxa-1,3-diazaspiro[4.5]dec-1-en-4-one] | 92 | 251 | > 10000 | 380 | 2630 | 575 | 457
O=C(C1CC1)N1CC(CN2C(=O)C3(CC3)N=C2c2ccc(-c3ccc4c(cnn4CC4CC4)c3)cc2F)C1 [compound 523, 6-{[1-(Cyclopropylcarbonyl)azetidin-3-yl]methyl}-5-{4-[1-(cyclopropylmethyl)-1H-indazol-5-yl]-2-fluorophenyl}-4,6-diazaspiro[2.4]hept-4-en-7-one] | 92 | 513 | > 10000 | 676 | 3240 | 1170 | 1480
Cn1nc(N)c2ccc(-c3ccc(C4=NC5(CC5)C(=O)N4C[C@@H]4CCN(C(=O)C5CC5)C4)cc3)cc21 [compound 483, 5-[4-(3-Amino-1-methyl-1H-indazol-6-yl)phenyl]-6-{[(3R)-1-(cyclopropylcarbonyl)pyrrolidin-3-yl]methyl}-4,6-diazaspiro[2.4]hept-4-en-7-one] | 95 | 107 | > 10000 | 47.9 | 380 | ~91.2 | 174
COCc1c2ccc(-c3ccc(C4=NC5(CC5)C(=O)N4C[C@@H]4CCN(C(=O)C5CC5)C4)cc3)cc2nn1C [compound 486, 6-{[(3R)-1-(Cyclopropylcarbonyl)pyrrolidin-3-yl]methyl}-5-{4-[3-(methoxymethyl)-2-methyl-2H-indazol-6-yl]phenyl}-4,6-diazaspiro[2.4]hept-4-en-7-one] | 81 | 1510 | > 10000 | ~2190 | 4470 | ~2820 | 2630
Cc1cc(-c2ccc3cc(C#N)ccc3c2)ccc1C1=NC2(CC2)C(=O)N1CC1CN(C(=O)C2CCO2)C1 (centres unmarked) [compound 224, 6-(3-methyl-4-(6-((1-(oxetane-2-carbonyl)azetidin-3-yl)methyl)-7-oxo-4,6-diazaspiro[2.4]hept-4-en-5-yl)phenyl)-2-naphthonitrile] | 103 | 25.1 | ~10000 | 7.76 | 56.2 | 12.6 | 77.6

Stronger by IC50 [6], values ahead:

inhibition at 10 µM [1] [%] | IC50 [1] [nM] | IC50 (A2780 ovarian cells [2]) [nM] | IC50 (A2780 ovarian cells [3]) [nM] | IC50 [4] [nM] | IC50 [5] [nM] | IC50 [6] [nM] | Structure (SMILES)
99 | 20 | > 10000 | 14.8 | 275 | 12 | 27.5 | O=C(C1CC1)N1CC[C@@H](CN2C(=O)C3(CC3)N=C2c2ccc(-c3ccc4cc[nH]c4c3)cc2)C1 [compound 301, (R)-5-(4-(1H-indol-6-yl)phenyl)-6-((1-(cyclopropanecarbonyl)pyrrolidin-3-yl)methyl)-4,6-diazaspiro[2.4]hept-4-en-7-one]
99 | 15.1 | > 10000 | ~28.2 | 81.3 | 22.4 | 55 | O=C(C1CC1)N1CC(CN2C(=O)C3(CC3)N=C2c2ccc(-c3ccc4cccc(F)c4c3)cc2F)C1 [compound 350, 6-((1-(cyclopropanecarbonyl)azetidin-3-yl)methyl)-5-(2-fluoro-4-(8-fluoronaphthalen-2-yl)phenyl)-4,6-diazaspiro[2.4]hept-4-en-7-one]
101 | 16.2 | > 10000 | 5.01 | 75.9 | 13.2 | 49 | O=C(N1CC(CN2C(=O)C3(CC3)N=C2c2ccc(-c3ccc4ccccc4c3)cc2F)C1)C1(O)CC1 [compound 372, 5-(2-fluoro-4-(naphthalen-2-yl)phenyl)-6-((1-(1-hydroxycyclopropanecarbbonyl)azetidin-3-yl)methyl)-4,6-diazaspiro[2.4]hept-4-en-7-one]
95 | 39.8 | > 6170 | 8.13 | ~79.4 | 8.32 | 41.7 | CC1(C(=O)N2CC(CN3C(=O)C4(CC4)N=C3c3ccc(-c4ccc5cc(F)ccc5c4)cc3F)C2)CC1 [compound 359, 5-(2-fluoro-4-(6-fluoronaphthalen-2-yl)phenyl)-6-((1-(1-methylcyclopropanecarbonyl)azetidin-3-yl)methyl)-4,6-diazaspiro[2.4]hept-4-en-7-one]
104 | 22.4 | > 6170 | 646 | 832 | ~240 | 41.7 | Cc1cc2cc(-c3ccc(C4=NC5(CC5)C(=O)N4C[C@@H]4CCN(C(=O)C5CC5)C4)c(F)c3)ccc2s1 [compound 243, (R)-6-((1-(cyclopropanecarbonyl)pyrrolidin-3-yl)methyl)-5-(2-fluoro-4-(2-methylbenzo[b]thiophen-5-yl)phenyl)-4,6-diazaspiro[2.4]hept-4-en-7-one]

From US10077261B2, “Imidazolin-5-one derivative useful as FASN inhibitors for the treatment of cancer” (Janssen Pharmaceutica NV, priority 2012, dated 2018)
